Each structure is given as a SMILES string.

Holding throughout (type): in vivo
Test [1] concerns milkweed bug (Oncopeltus faciatus [Dallas]). As to the kind of experiment: Initial contact activity against milkweed bug (percent kill). As to conditions: 72 hours exposure, read-out: Percent Kill MWB, initial activity. As for the experimental part: (§1) The test compound was dissolved in a small amount of acetone, and the acetone solution was dispersed in water containing one drop of isooctylphenyl polyethoxyethanol to make a solution having 1250 ppm (w/w) active ingredient. Aliquots of this solution were diluted with an appropriate amount of water to provide solutions containing various concentrations of active ingredient. Test organisms and techniques were as follows: the activity against Mexican bean beetle (Epilachna varivestis Muls.) and southern armyworm (Spodoptera eridania [Cram.]) was evaluated by dipping the leaves of pinto bean plants into the test solution and infesting the leaves with the appropriate immature-form insects when the foliage had dried. The activity against the pea aphid (Acyrthosiphon pisum [Harris]) was evaluated on broad bean plants whose leaves were dipped before infestation with adult aphids. The activity against twospotted spider mites (Tetranychus urticae Koch) was evaluated on pinto bean plants whose leaves were dipped after infestation with adult mites. The activity against the milkweed bug (Oncopeltus faciatus [Dallas]) was evaluated by spraying the test solutions into glass dishes or jars containing the adult insects. Following application of the compound and infestation the tests were maintained in a holding room at 80° F. and 50% relative humidity for an exposure period of 72 hours. At the end of this time the dead and living insects or mites were counted and the percent kill was calculated. Results of these tests are summarized in Table I. Most of the compounds tested were active against all the insects.

Test [2] concerns Mexican bean beetle (Epilachna varivestis Muls.). Nature of the test: Initial contact activity against Mexican bean beetle (percent kill). The following applies: 72 hours exposure, read-out: Percent Kill MBB, initial activity. How it is done:
as §1

Test [3] relates to southern armyworm (Spodoptera eridania [Cram.]). Nature of the test: Initial contact activity against southern armyworm (percent kill). The following applies: 72 hours exposure, read-out: Percent Kill AW, initial activity. How it is done:
as §1

Test [4] relates to pea aphid (Acyrthosiphon pisum [Harris]). Nature of the test: Initial contact activity against pea aphid (percent kill). As to conditions: 72 hours exposure, read-out: Percent Kill PA, initial activity. How it is done: as §1
Test [5] deals with twospotted spider mites (Tetranychus urticae Koch). As to the kind of experiment: Initial contact activity against twospotted spider mite (percent kill). As to conditions: 72 hours exposure, read-out: Percent Kill SM, initial activity. How it is done:
as §1

`CC1(C)C(C=C(Cl)Sc2ccc(F)cc2)C1C(=O)OC(C#N)c1cccc(Oc2ccccc2)c1` (mixture of isomers) [Example 8, α-cyano-3-phenoxybenzyl cis,trans-3-[2-(E,Z)-chloro-2-(4-fluorophenylthio)ethenyl]-2,2-dimethylcyclopropanecarboxylate]: the mortality at 78 ppm was determined as 75% in test [1], 100% in test [2], 40% in test [3] and 46% in test [4]. The mortality at 312 ppm is 100% in test [1], 100% in test [2], 80% in test [3] and 94% in test [4]. Moreover, the mortality at 1250 ppm in test [1] was 100%; in test [3] it was 90%; in test [4], 93%; in test [5], 100%. Also, in test [2], the mortality at 20 ppm amounted to 100%.

For the compound `CC1(C)C(C=CSc2ccc(F)cc2)C1C(=O)OCc1cccc(Oc2ccccc2)c1` (mixture of isomers) [Example 5, 3-phenoxybenzyl cis,trans-3-[2-(E,Z)-(4-fluorophenylthio)ethenyl]-2,2-dimethylcyclopropanecarboxylate], the mortality at 78 ppm was determined as 0% in test [1]; 35% in test [2]; 0% in test [3]; 0% in test [4]; 0% in test [5]. The mortality at 312 ppm was found to be 5% in test [1]; 95% in test [2]; 0% in test [3]; 45% in test [4]; 0% in test [5]. Besides, the mortality at 1250 ppm in test [1] turned out to be 15%; in test [3], 7%; in test [4] it was 35%; in test [5], 0%. Further, the mortality at 20 ppm in test [2] was 33%.

Turning to `CC1(C)C(C=C(Cl)Sc2ccccc2)C1C(=O)OC(c1cccc(Oc2ccccc2)c1)C(F)(F)F` (mixture of isomers) [Example 7, α-trifluoromethyl-3-phenoxybenzyl cis,trans-3-[2-(E,Z)-chloro-2-phenylthioethenyl]-2,2-dimethylcyclopropanecarboxylate], the mortality at 78 ppm is 5% in test [1], 100% in test [2], 0% in test [3] and 94% in test [4]. Also, the mortality at 312 ppm in test [1] is 32%; in test [2] it was 100%; in test [3], 0%; in test [4], 100%. Moreover, the mortality at 1250 ppm was 100% in test [1], 0% in test [3], 100% in test [4] and 62% in test [5]. Besides, the mortality at 20 ppm in test [2] is 90%.

Turning to `CC1(C)C(C=CSc2ccc(F)cc2)C1C(=O)OC(C#N)c1cccc(Oc2ccccc2)c1` (mixture of isomers) [Example 6, α-cyano-3-phenoxybenzyl cis,trans-3-[2-(E,Z)-(4-fluorophenylthio)ethenyl]-2,2-dimethylcyclopropanecarboxylate], the mortality at 78 ppm in test [1] was determined as 5%; in test [2], 94%; in test [3], 0%; in test [4] it was 0%; in test [5] it was 0%. Moreover, the mortality at 312 ppm in test [1] came out at 38%; in test [2] it was 100%; in test [3], 0%; in test [4], 10%; in test [5] it was 0%. Also, the mortality at 1250 ppm in test [1] came out at 100%; in test [3], 56%; in test [4], 100%; in test [5], 0%. Besides, the mortality at 20 ppm in test [2] was determined as 68%.

As for `CC1(C)C(C=C(Cl)Sc2ccc(Cl)cc2)C1C(=O)OCc1cccc(Oc2ccccc2)c1` (mixture of isomers) [Example 9, 3-phenoxybenzyl cis,trans-3-[2-(E,Z)-chloro-2-(4-chlorophenylthio)ethenyl]-2,2-dimethylcyclopropanecarboxylate], the mortality at 78 ppm in test [1] amounted to 0%; in test [2] it was 100%; in test [3] it was 0%; in test [4] it was 71%. The mortality at 312 ppm is 70% in test [1], 100% in test [2], 0% in test [3] and 100% in test [4]. Besides, the mortality at 1250 ppm in test [1] turned out to be 90%; in test [3], 20%; in test [4], 100%; in test [5], 0%. The mortality at 20 ppm in test [2] is 100%.

As for `CC1(C)C(C=C(Br)Sc2ccccc2)C1C(=O)OCc1cccc(Oc2ccccc2)c1` (mixture of isomers) [Example 10, 3-phenoxybenzyl cis,trans-3-[2-(E,Z)-bromo-2-phenylthioethenyl]-2,2-dimethylcyclopropanecarboxylate], the mortality at 78 ppm in test [1] turned out to be 5%; in test [2], 95%; in test [3], 0%; in test [4], 24%. Besides, the mortality at 312 ppm in test [1] amounted to 71%; in test [2], 94%; in test [3], 44%; in test [4], 94%. The mortality at 1250 ppm was 100% in test [1], 100% in test [3], 95% in test [4] and 81% in test [5]. Further, the mortality at 20 ppm in test [2] came out at 72%.

(Values after patent publication US4215069A, “Arylthiovinylcyclopropanecarboxylate intermediates” (FMC Corporation, priority 1979, dated 1980).)
